Measured values as given in patent US20190387748A1, “COMPOSITIONS AND RELATED METHODS FOR AGRICULTURE” (priority 2017, published 2019).
Entries after “also recorded” stand apart in the source; their conditions may differ.

Tests used:
[1] = tested on: Acyrthosiphon pisum aphids; assay: Aphid body area (size) measurement; format: in vivo; details: 10 or 100 uM pantothenol, through plants; by 3 days post-treatment
Experimental: For adult aphids, new nymphs were counted daily and then discarded. At the end of the experiments, fecundity was determined as the mean number of offspring produced daily once the aphid reached adulthood. Pictures of aphids were taken throughout the experiment to evaluate size differences between treatment groups.
Each treatment group received approximately the same number of individuals from each of the collection plant. For each treatment, 20 aphids were placed onto each leaf. Aphids were monitored daily for survival and dead aphids were removed when they were discovered. In addition, the developmental stage (1st, 2nd, 3rd, 4th, 5th instar, and 5R, representing a reproducing 5th instar) was determined daily throughout the experiment. […]
For adult aphids, new nymphs were counted daily and then discarded. At the end of the experiments, fecundity was measured in two ways: 1) the mean day at which the first offspring for the treatment group was determined and 2) the mean number of offspring produced daily once the aphid reached adulthood. […]
Aphids LSR-1 (which harbor only Buchnera), Acyrthosiphon pisum were grown on fava bean plants (Vroma vicia faba from Johnny's Selected Seeds) in a climate-controlled incubator (16 h light/8 h dark photoperiod; 60±5% RH; 25±2° C.). […] Aphids were monitored daily for survival and dead aphids were removed from the deep petri dish when they were discovered. […]

Buchnera = assay: qPCR of Buchnera/aphid DNA copy numbers (symbiont titer); format: in vivo, Buchnera aphidicola; details: 10 or 100 uM pantothenol, through plants; 8 days
Experimental: (§1) After 7 days of treatment, DNA was extracted from multiple aphids from each treatment group. Briefly, the aphid body surface was sterilized by dipping the aphid into a 6% bleach solution for approximately 5 seconds. Aphids were then rinsed in sterile water and DNA was extracted from each individual aphid using a DNA extraction kit (Qiagen, DNeasy kit) according to manufacturer's instructions. DNA concentration was measured using a nanodrop nucleic acid quantification, and Buchnera and aphid DNA copy numbers were measured by qPCR.
After 6 days of treatment, DNA was extracted from multiple aphids from each treatment group and qPCR for quantifying Buchnera levels was done as described in the previous Example.
as §1, with “8” for “7”
as §1, with “After 8” for “After 7”, “from the remaining” for “from multiple”, “aphids in” for “aphids from”
as §1, with “Briefly,” for “After 7 days of treatment, DNA was extracted from multiple aphids from each treatment group. Briefly,”
as §1, with “Briefly,” for “After 7 days of treatment, DNA was extracted from multiple aphids from each treatment group. Briefly,”
as §1, with “3” for “7”, “the remaining living” for “multiple”
as §1, with “After 5” for “After 7”, “from the remaining” for “from multiple”, “aphids in” for “aphids from”
At 5 days post-treatment, DNA was extracted from several aphids in each treatment group. Briefly, the aphid body surface was sterilized by dipping the aphid into a 6% bleach solution for approximately 5 seconds.

CC(C)(CO)[C@@H](O)C(=O)NCCCO [pantothenol]
Aphid area (body size) [1]: drastic effect of pantothenol treatment; also recorded: smaller in area than untreated controls
Buchnera/aphid DNA copies (Buchnera): did not affect endosymbiotic Buchnera; also recorded: high ratios of Buchnera/aphid DNA copies
